Source: patent publication US20100311798A1, “2-AMINOOXAZOLINES AS TAAR1 LIGANDS” (priority 2009, published 2010)

What follows are molecules tested against mouse TAAR1 (Mus musculus, UniProt Q923Y8) (assay: Radioligand binding to TAAR1 in membranes of stably transfected HEK293 cells).
mouse TAAR1, sequence (Q923Y8 whole entry): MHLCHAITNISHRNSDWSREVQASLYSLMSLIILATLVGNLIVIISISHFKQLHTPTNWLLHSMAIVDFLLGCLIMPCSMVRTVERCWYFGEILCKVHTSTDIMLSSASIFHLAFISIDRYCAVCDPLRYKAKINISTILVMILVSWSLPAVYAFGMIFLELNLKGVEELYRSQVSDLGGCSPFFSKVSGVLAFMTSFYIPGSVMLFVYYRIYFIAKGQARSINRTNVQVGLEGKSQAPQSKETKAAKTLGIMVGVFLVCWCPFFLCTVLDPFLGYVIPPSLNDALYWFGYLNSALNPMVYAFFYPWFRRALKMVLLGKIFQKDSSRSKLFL

Kd [nM] | Structure (SMILES) | Ki [nM]
– | C[C@@H]1OC(N)=N[C@H]1CCc1ccc(Cl)cc1 [Example 14a, (4S,5S)-4-[2-(4-chloro-phenyl)-ethyl]-5-methyl-4,5-dihydro-oxazol-2-ylamine] | 1.8
– | C[C@@H]1OC(N)=N[C@H]1CCC1CCCCC1 [Example 13, (4S,5S)-4-(2-Cyclohexyl-ethyl)-5-methyl-4,5-dihydro-oxazol-2-ylamine] | 13.3
– | C[C@H]1OC(N)=N[C@H]1CCC1CCCCC1 [Example 13a, (4S,5R)-4-(2-cyclohexyl-ethyl)-5-methyl-4,5-dihydro-oxazol-2-ylamine] | 52.7
– | CC1OC(N)=N[C@H]1Cc1ccccc1 (single isomer, unassigned) [Example 12] | 159
– | C[C@H]1OC(N)=N[C@H]1CCc1ccccc1 [Example 8a, (4S,5R)-5-methyl-4-phenethyl-4,5-dihydro-oxazol-2-ylamine] | 3.1
– | C[C@@H]1OC(N)=N[C@H]1CCc1ccc(Cl)c(Cl)c1 [Example 15a, (4S,5S)-4-[2-(3,4-dichloro-phenyl)-ethyl]-5-methyl-4,5-dihydro-oxazol-2-ylamine] | 8
– | C[C@H]1OC(N)=N[C@H]1CCc1ccc(Cl)cc1 [Example 14, (4S,5R)-4-[2-(4-Chloro-phenyl)-ethyl]-5-methyl-4,5-dihydro-oxazol-2-ylamine] | 0.7
– | C[C@H]1OC(N)=N[C@H]1Cc1ccccc1 [Example 12a, (4S,5R)-4-benzyl-5-methyl-4,5-dihydro-oxazol-2-ylamine] | 175
– | CCC1OC(N)=N[C@H]1CCc1ccccc1 (stereo partly drawn) [Example 9, (S)-5-Ethyl-4-phenethyl-4,5-dihydro-oxazol-2-ylamine] | 17.1
– | C[C@@H]1OC(N)=N[C@H]1CCCc1ccccc1 [Example 11a, (4S,5S)-5-methyl-4-(3-phenyl-propyl)-4,5-dihydro-oxazol-2-ylamine] | 5.8
– | C[C@H]1OC(N)=N[C@H]1CCCc1ccccc1 [Example 11, (4S,5R)-5-Methyl-4-(3-phenyl-propyl)-4,5-dihydro-oxazol-2-ylamine] | 0.9
– | CC1OC(N)=N[C@H]1CCc1ccccc1 (single isomer, unassigned) [Example 8] | 1.7
– | C[C@H]1OC(N)=N[C@H]1CCCc1ccc(Cl)cc1 [Example 17, (4S,5R)-4-[3-(4-Chloro-phenyl)-propyl]-5-methyl-4,5-dihydro-oxazol-2-ylamine] | 0.3
– | C[C@H]1OC(N)=N[C@H]1CCc1ccc(Cl)c(Cl)c1 [Example 15, (4S,5R)-4-[2-(3,4-Dichloro-phenyl)-ethyl]-5-methyl-4,5-dihydro-oxazol-2-ylamine] | 0.6
60 | c1ccc2c(c1)CCCC2C1=NCCN1 (racemic) [reference compound] | –
– | C[C@@H]1OC(N)=N[C@@H]1CCc1ccccc1 [Example 7, (4R,5S)-5-Methyl-4-phenethyl-4,5-dihydro-oxazol-2-ylamine] | 27.3
